ChEMBL document CHEMBL1201862, “PubChem BioAssay data set” (2004)
Active and inactive are the calls of the source.

Columns and labels:
[1] = biological target: Nucleotide-binding oligomerization domain-containing protein 1 (Homo sapiens, UniProt Q9Y239); experiment: SAR analysis of compounds that inhibit NOD1 - Set 3. [Related pubchem assays (depositor defined):AID1566, AID1575, AID1578, AID1849, AID1852, AID2333, AID2335, AID2466]; format: functional
Tumor necrosis factor = Tumor necrosis factor (Homo sapiens, UniProt P01375); experiment: analog potency on TNFa NF-kB signaling – cell-based, set 3, SAR follow-up (AID 2801); format: functional
Tumor necrosis factor, sequence (P01375 whole entry): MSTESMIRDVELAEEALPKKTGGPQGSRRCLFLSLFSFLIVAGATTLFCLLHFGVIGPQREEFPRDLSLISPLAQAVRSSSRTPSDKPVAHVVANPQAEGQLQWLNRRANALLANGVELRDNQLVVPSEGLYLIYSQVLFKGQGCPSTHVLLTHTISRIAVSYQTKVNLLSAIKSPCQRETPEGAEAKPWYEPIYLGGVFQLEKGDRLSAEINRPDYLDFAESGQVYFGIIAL

HEK293 = experiment: SAR analysis of compounds that are cytotoxic to HEK293 - Set 3. [Related pubchem assays (depositor defined):AID1575, AID1578, AID1848, AID1849, AID2001, AID2333, AID2334, AID2335, AID2337, AID2469]; format: functional, cell-based; details: Homo sapiens
[2] = biological target: Nucleotide-binding oligomerization domain-containing protein 2 (Homo sapiens, UniProt Q9HC29); experiment: inhibition of MDP-driven NOD2 NF-kB reporter – cell-based, set 3, SAR follow-up (AID 2799); format: functional
[3] = biological target: T1, Serine/threonine-protein phosphatase (Candida dubliniensis (strain CD36 / CBS 7987 / NCPF 3949 / NRRLY-17841) (Yeast), UniProt B9W6M3); experiment: Fluorescence Cell-Based Secondary Assay to Identify Inhibitors of Calcineurin. [Related pubchem assays (depositor defined):AID1979, AID2007]; format: functional
T1 sequence (B9W6M3 whole entry): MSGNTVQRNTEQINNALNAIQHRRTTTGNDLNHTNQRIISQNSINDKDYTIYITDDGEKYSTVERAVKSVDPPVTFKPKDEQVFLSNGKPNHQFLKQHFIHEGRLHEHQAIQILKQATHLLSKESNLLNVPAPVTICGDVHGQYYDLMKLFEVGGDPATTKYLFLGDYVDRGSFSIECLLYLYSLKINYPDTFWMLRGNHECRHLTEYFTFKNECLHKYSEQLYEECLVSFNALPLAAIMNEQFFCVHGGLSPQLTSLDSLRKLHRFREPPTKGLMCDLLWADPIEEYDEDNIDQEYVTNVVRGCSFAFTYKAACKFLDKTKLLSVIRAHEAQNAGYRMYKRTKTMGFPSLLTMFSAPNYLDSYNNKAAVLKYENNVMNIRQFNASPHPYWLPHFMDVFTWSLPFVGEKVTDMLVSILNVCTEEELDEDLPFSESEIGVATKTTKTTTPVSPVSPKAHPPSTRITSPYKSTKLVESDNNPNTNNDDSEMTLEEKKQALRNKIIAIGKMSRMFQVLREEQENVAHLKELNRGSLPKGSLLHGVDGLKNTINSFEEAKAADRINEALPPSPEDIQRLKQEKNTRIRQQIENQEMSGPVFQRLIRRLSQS

[4] = biological target: T2, Dual specificity protein phosphatase 6 (Rattus norvegicus, UniProt Q64346); experiment: inhibition of rat DUSP6 enzyme activity – biochemical, in vitro, primary screen (AID 425)
T2 sequence (Q64346 whole entry): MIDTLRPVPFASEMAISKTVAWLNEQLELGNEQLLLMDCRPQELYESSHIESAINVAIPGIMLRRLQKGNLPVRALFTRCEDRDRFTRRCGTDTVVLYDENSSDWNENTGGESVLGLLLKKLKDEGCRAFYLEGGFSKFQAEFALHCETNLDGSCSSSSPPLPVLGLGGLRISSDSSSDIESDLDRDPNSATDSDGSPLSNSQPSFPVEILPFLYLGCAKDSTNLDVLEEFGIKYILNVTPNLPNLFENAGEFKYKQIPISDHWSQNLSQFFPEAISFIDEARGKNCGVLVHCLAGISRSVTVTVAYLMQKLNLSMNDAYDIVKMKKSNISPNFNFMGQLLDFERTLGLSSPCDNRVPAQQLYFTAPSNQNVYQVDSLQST

[5] = biological target: T3, Voltage-gated N-type calcium channel alpha-1B subunit/Amyloid beta A4 precursor protein-binding family A member 1 (Homo sapiens, UniProt Q00975+Q02410); format: protein assay
T3 sequence (Q00975 whole entry): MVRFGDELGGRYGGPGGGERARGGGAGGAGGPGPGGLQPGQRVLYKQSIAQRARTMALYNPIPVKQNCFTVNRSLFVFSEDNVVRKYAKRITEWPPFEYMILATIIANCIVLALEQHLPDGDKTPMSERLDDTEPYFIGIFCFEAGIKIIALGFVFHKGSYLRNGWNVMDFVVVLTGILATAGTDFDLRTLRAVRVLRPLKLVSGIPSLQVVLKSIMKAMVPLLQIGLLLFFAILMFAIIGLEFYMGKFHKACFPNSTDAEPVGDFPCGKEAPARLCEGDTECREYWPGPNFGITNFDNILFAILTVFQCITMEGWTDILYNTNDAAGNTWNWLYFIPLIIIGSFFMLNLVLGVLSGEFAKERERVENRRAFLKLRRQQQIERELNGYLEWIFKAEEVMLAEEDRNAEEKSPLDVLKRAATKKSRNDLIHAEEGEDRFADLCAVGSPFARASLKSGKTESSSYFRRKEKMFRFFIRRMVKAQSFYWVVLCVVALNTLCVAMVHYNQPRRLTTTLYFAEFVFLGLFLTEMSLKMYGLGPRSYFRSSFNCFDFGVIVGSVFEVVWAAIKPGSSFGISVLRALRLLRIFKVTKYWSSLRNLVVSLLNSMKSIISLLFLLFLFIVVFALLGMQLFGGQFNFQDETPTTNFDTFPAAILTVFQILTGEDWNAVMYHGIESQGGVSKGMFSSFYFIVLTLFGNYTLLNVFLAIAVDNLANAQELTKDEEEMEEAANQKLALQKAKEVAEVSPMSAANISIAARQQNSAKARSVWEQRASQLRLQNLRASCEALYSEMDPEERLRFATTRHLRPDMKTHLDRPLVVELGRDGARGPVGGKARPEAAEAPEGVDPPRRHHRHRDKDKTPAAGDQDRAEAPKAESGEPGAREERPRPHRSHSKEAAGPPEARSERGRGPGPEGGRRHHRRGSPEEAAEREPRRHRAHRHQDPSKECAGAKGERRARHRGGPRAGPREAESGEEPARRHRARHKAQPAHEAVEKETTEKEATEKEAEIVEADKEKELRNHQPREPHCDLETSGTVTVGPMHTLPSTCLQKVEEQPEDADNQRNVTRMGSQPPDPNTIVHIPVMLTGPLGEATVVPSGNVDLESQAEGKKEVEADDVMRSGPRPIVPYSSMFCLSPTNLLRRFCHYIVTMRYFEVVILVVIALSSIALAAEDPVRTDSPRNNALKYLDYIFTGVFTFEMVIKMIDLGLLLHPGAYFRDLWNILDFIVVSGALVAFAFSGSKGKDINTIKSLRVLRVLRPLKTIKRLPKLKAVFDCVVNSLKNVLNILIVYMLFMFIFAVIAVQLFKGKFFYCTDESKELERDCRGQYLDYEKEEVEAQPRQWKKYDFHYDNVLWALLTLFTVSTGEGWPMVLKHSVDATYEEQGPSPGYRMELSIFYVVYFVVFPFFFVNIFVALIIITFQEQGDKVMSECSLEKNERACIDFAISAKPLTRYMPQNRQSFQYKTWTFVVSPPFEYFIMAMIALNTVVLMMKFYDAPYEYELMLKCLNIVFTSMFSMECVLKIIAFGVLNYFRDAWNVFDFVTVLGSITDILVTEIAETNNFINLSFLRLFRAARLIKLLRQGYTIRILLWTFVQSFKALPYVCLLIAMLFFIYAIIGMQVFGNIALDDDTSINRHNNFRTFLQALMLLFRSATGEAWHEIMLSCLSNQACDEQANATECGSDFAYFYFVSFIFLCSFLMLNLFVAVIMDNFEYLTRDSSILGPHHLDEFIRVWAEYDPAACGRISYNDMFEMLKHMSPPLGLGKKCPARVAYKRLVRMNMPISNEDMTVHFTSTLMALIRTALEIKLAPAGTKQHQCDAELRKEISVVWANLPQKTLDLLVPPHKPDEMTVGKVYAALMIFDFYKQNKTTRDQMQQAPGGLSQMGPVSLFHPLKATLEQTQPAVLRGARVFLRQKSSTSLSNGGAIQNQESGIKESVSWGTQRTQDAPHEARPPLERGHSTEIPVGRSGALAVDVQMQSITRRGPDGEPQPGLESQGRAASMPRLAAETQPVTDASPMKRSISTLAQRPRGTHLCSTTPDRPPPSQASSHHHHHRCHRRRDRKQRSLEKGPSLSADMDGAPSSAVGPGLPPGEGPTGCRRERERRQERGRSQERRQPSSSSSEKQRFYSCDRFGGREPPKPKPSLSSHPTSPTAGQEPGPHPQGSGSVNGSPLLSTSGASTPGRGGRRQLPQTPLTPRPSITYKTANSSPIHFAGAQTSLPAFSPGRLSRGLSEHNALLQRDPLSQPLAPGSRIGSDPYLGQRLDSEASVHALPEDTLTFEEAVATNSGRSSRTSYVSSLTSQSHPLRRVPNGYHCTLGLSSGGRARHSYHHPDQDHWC
T3 sequence (Q02410 whole entry): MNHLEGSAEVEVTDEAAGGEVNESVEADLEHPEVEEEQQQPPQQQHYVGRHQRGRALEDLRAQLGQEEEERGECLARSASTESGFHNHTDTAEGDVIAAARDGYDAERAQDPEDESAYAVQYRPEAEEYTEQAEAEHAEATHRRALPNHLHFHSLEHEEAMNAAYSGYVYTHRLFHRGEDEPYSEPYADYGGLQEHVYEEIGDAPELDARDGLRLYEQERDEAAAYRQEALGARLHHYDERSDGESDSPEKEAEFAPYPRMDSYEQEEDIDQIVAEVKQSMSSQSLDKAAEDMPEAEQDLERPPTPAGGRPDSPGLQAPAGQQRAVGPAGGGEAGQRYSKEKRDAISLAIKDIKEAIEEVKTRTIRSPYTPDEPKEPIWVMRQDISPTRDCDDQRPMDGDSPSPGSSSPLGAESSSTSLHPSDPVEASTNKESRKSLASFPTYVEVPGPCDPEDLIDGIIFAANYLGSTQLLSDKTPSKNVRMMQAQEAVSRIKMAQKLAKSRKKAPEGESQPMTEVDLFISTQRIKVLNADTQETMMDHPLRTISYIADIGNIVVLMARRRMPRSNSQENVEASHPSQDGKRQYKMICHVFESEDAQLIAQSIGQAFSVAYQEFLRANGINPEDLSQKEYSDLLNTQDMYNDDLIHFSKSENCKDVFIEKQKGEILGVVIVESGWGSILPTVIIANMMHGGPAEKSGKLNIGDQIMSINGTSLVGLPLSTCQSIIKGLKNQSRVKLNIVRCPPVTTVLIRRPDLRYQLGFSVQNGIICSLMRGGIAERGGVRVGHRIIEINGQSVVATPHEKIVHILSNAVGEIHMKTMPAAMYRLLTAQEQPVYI

[6] = biological target: T3, Voltage-gated N-type calcium channel alpha-1B subunit/Amyloid beta A4 precursor protein-binding family A member 1; format: protein assay; remark: listed apart in the source
[7] = biological target: T4, Dual specificity protein phosphatase 3 (Homo sapiens, UniProt P51452); experiment: VHR1 phosphatase inhibitors, biochemical (AID 1878)
T4 sequence (P51452 whole entry): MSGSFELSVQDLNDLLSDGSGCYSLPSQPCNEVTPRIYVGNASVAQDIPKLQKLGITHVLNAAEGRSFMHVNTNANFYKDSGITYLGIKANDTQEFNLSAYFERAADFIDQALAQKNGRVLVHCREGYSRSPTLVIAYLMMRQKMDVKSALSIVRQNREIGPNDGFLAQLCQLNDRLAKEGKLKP

[8] = biological target: T4, Dual specificity protein phosphatase 3; experiment: VHR1 phosphatase inhibitors, primary screen, biochemical, absorbance, uHTS (AID 1654)
[9] = biological target: T5, Lysine-specific demethylase 4C (Homo sapiens, UniProt Q9H3R0); experiment: inhibition of JMJD2C H3K9me3 demethylation – biochemical, DELFIA europium, cherry-picked samples, dose response (AID 488835); format: functional
T5 sequence (Q9H3R0 whole entry): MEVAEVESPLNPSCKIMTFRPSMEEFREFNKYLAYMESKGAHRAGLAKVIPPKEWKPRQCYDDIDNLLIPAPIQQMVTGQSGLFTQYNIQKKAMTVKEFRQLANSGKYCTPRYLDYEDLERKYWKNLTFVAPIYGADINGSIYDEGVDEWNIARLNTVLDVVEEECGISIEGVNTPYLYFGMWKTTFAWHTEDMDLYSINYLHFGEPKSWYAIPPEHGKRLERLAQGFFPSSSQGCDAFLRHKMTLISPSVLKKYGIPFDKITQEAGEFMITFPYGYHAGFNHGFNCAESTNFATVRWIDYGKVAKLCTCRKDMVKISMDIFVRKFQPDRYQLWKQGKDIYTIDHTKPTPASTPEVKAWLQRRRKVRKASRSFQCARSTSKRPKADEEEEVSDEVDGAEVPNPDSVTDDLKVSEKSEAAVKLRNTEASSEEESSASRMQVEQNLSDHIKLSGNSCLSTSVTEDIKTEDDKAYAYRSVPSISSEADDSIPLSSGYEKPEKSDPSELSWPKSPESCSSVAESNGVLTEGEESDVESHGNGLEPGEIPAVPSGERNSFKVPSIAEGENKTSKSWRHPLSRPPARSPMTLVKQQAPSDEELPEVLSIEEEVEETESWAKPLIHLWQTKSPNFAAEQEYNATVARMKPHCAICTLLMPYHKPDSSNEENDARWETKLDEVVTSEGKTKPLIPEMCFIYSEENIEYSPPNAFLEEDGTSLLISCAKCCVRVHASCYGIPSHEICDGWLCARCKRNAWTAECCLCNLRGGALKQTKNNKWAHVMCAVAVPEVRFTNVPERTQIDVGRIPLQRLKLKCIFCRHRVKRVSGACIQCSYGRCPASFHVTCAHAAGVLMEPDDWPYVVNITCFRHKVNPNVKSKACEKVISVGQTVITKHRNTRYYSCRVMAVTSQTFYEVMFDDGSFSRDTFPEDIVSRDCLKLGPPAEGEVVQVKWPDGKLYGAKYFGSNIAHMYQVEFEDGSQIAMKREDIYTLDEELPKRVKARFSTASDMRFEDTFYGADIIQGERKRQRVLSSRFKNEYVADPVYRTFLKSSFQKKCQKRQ

Fatty acid synthase [10] = biological target: T6, Fatty acid synthase (Homo sapiens, UniProt P49327); experiment: inhibition of human FAS-TE enzyme activity – biochemical, kinetic fluorescence intensity, dose response (AID 624326); format: functional;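 note: rate of fluorescence rise from hydrolysis of a fluorogenic O-methyl fluorescein ester substrate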
Fatty acid synthase [11] = biological target: T6, Fatty acid synthase; experiment: inhibition of human FAS-TE enzyme activity – biochemical, endpoint fluorescence intensity, uHTS hits, dose response (AID 624327); format: functional;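 note: fluorescence from hydrolysis of an O-methyl fluorescein acyl ester substrate by the enzyme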
[12] = biological target: Lysine-specific demethylase 4A (Homo sapiens, UniProt O75164); experiment: inhibition of JMJD2A H3K9me3 demethylation – biochemical, DELFIA europium, cherry-picked samples, selectivity assay for GASC-1 inhibitor project, dose response (AID 488840)
Cytochrome P450 1A2 = biological target: T7, Cytochrome P450 1A2 (Homo sapiens, UniProt P05177);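 note: PubChem cytochrome P450 panel assay, CYP1A2 panel member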
T7 sequence (P05177 whole entry): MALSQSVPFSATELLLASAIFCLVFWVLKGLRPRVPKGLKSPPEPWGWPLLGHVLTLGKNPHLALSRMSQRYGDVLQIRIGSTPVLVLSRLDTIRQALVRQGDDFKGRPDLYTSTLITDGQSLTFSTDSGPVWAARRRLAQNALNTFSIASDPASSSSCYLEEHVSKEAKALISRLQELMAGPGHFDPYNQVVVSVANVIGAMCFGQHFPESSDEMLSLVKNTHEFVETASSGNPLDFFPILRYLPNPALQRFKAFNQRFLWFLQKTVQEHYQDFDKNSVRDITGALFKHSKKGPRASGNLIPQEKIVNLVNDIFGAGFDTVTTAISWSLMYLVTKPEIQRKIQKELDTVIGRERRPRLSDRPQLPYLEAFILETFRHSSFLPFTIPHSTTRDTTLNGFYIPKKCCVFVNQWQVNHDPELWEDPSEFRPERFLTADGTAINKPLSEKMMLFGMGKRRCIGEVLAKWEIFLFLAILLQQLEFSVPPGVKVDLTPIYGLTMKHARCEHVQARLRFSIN

Cytochrome P450 2C9 = Cytochrome P450 2C9 (Homo sapiens, UniProt P11712)
Cytochrome P450 2C9, sequence (P11712 whole entry): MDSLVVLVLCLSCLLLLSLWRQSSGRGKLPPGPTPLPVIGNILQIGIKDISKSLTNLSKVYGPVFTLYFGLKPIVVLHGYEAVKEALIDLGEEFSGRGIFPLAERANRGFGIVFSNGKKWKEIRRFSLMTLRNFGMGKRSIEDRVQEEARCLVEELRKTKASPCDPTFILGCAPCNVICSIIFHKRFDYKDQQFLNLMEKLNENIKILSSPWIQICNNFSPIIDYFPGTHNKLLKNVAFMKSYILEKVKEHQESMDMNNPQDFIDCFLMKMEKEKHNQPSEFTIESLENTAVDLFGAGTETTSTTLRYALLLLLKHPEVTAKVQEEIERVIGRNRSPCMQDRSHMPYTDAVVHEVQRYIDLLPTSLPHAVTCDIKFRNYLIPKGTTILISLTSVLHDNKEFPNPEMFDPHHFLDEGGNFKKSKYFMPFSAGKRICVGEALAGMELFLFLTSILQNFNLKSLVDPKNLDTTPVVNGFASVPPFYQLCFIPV

Nucleotide-binding oligomerization domain-containing protein 1, sequence (Q9Y239 whole entry, the tested form may be a part): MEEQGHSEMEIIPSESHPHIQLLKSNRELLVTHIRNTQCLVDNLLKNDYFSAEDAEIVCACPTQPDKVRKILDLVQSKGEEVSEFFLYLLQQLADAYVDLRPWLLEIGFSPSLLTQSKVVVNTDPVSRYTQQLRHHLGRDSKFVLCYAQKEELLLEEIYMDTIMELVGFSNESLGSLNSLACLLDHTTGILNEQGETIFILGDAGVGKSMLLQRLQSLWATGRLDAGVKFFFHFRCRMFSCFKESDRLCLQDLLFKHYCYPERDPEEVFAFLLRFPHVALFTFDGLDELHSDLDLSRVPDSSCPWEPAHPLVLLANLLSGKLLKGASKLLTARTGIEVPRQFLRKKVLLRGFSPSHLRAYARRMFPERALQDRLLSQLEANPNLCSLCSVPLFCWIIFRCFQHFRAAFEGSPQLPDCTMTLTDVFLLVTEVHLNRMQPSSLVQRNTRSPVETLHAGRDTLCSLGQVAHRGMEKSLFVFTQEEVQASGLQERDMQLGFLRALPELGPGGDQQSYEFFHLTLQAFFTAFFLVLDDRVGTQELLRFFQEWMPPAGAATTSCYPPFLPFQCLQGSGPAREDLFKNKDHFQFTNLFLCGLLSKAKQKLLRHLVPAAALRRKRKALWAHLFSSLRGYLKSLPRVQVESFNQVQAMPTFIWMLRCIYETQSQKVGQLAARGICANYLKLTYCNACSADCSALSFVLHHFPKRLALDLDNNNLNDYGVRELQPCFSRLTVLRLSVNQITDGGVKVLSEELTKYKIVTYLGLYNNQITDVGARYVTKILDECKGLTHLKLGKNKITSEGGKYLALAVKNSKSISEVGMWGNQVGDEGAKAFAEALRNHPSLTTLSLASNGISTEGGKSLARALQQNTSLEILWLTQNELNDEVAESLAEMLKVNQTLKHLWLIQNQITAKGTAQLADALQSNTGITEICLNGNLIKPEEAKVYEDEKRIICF

In the case of `Nc1nc2ccccc2n1S(=O)(=O)c1ccc(C(F)(F)F)cc1`, the IC50 [1] is reported as 0.955 µM (active), the IC50 (Tumor necrosis factor) is reported as > 20 µM (inactive) and the IC50 (HEK293) is reported as > 20 µM (inactive). The IC50 [2] was > 20 µM (inactive).

In the case of `CCOC(=O)N1C(=O)C2(CCCCC2)N(c2ccc(C)cc2)C1=S`, the EC50 [3] is reported as > 285 µM (inactive).

With `CCOC(=O)C1=C(C)N=c2s/c(=C/c3ccc(OCC(=O)O)cc3)c(=O)n2C1c1ccc(SC)cc1` (stereo unspecified) the IC50 [4] was 72.6 µM (active), the IC50 [5] was > 50 µM (inactive) and the IC50 [6] was 10.4 µM (active). The IC50 [7] was 6.94 µM (active) and the IC50 [8] was 9.18 µM (active).

With `O=C(N/N=C/c1cc([N+](=O)[O-])cc([N+](=O)[O-])c1O)C(O)(c1ccccc1)c1ccccc1` the AC50 [9] was 2 µM (active), the IC50 (Fatty acid synthase [10]) was 8.77 µM (active) and the IC50 (Fatty acid synthase [11]) was 16.1 µM (active). The AC50 [12] was 3.47 µM (active).

For `C=C[C@H]1C[N@@]2CC[C@H]1C[C@@H]2[C@@H](O)c1ccnc2ccc(OC)cc12` [QUINIDINE], the AC50 (Cytochrome P450 1A2) was “inactive” and the AC50 (Cytochrome P450 2C9) was “inactive”.
